Measurements taken from US20240270762A1, “PENICILLIN-BINDING PROTEIN INHIBITORS” (priority 2021, published 2024).
Values after ≈ are worked out from the molar mass of the structure shown.

Legend:
P. aeruginosa CDC-0095 = test: microbe, parasite or virus in culture; assay type: cell-based; settings: Pseudomonas aeruginosa, CDC0095, read-out: Minimum inhibitory concentration, P. aeruginosa CDC-0095
A. baumannii CDC-0045 = test: microbe, parasite or virus in culture; assay type: cell-based; settings: Acinetobacter baumannii, CDC0045, read-out: MIC, A. baumannii CDC-0045
[1] = biological target: T1, PBP3 from Acinetobacter baumannii (ATCC 19606) (Acinetobacter baumannii, UniProt A0ABX6CK25); test: Bocillin-FL fluorescence polarization competition binding, A. baumannii PBP3; settings: fluorescence polarization competition binding assay using Bocillin-FL; read-out: A. baumannii PBP3 Potency
T1 sequence (A0ABX6CK25 64-610): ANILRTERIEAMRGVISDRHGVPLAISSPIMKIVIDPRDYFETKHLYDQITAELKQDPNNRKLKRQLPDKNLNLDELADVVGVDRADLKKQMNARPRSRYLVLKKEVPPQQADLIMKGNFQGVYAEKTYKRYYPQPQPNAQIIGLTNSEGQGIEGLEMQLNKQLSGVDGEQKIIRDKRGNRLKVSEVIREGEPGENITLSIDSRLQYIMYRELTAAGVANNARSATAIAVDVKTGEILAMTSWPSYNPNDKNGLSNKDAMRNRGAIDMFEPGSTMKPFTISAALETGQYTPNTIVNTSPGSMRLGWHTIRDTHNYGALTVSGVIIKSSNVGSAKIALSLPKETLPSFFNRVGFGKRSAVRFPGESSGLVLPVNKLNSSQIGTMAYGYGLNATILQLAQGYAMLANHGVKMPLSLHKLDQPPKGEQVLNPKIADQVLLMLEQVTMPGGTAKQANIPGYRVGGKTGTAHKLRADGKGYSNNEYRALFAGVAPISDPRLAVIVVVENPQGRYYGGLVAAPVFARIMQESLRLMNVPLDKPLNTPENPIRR
How it was run: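 Purified PBP was preincubated with inhibitor (E. coli PBP3 1.5 μM, 30 min; P. aeruginosa PBP3 0.75 μM, A. baumannii PBP3 0.2 μM and PBP1a 1 μM, 15 min), then Bocillin-FL (0.1 μM; 0.05 μM for PBP1a) added and FP read up to 60 min. EC50 = 50% loss of bound probe.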

A. baumannii ATCC 19606 = test: microbe, parasite or virus in culture; assay type: cell-based; settings: Acinetobacter baumannii, ATCC19606, read-out: MIC, A. baumannii ATCC 19606
P. aeruginosa ATCC 27853 = test: microbe, parasite or virus in culture; assay type: cell-based; settings: Pseudomonas aeruginosa, ATCC27853, read-out: Minimum inhibitory concentration, P. aeruginosa ATCC 27853
A. baumannii PBP2 = A. baumannii PBP2 (Acinetobacter baumannii, UniProt D0C8Z9); test: Bocillin-FL competition binding via gel filtration, A. baumannii PBP2
Chain of A. baumannii PBP2 (D0C8Z9 whole entry): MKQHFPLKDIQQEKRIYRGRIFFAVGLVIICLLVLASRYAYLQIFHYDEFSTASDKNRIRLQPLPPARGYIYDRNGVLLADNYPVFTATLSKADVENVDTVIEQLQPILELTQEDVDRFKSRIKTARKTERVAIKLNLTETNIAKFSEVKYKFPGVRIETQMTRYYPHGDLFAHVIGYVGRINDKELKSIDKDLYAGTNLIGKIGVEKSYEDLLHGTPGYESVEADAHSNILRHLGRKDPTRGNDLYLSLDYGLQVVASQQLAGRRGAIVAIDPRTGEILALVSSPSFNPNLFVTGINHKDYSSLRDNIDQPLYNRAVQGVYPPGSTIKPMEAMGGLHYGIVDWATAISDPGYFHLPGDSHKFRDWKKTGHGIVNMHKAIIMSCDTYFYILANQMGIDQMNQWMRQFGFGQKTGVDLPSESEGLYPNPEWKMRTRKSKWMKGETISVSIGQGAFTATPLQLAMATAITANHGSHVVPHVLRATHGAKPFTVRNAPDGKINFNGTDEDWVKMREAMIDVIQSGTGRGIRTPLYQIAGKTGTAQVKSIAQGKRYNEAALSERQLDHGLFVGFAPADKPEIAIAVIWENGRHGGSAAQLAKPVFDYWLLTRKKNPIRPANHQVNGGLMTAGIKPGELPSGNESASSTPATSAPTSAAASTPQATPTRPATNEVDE
How it was run: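 Competitive equilibrium binding; reporter Bocillin-FL. PBP + inhibitor (titration) pre-incubated → Bocillin-FL, 15 min → gel filtration → fluorescence. EC50 from Hill fit of fraction bound vs [inhibitor].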

[2] = tested on: B. thailandensis ATCC 700388; test: microbe, parasite or virus in culture; assay type: cell-based; settings: Burkholderia thailandensis, ATCC700388, read-out: Minimum inhibitory concentration (MIC), B. thailandensis ATCC 700388
P. aeruginosa CDC-0110 = test: microbe, parasite or virus in culture; assay type: cell-based; settings: Pseudomonas aeruginosa, CDC0110, read-out: Minimum inhibitory concentration, P. aeruginosa CDC-0110

## O=C(O)c1c(F)ccc2c1OB(O)[C@@H](NC(=O)[C@H](NC(=O)N1CCN(Cc3ccc(O)c(O)c3Cl)C(=O)C1=O)c1ccc(P(=O)(O)O)cc1)C2 (single isomer, unassigned) [Example 160]
P. aeruginosa CDC-0095
  MIC: < 1 µg/mL
A. baumannii CDC-0045
  MIC: < 1 µg/mL
[1]
  IC50: < 10 µM
A. baumannii ATCC 19606
  MIC: < 1 µg/mL
P. aeruginosa ATCC 27853
  MIC: < 1 µg/mL
A. baumannii PBP2
  EC50: < 10 µM
[2]
  MIC: < 1 µg/mL
P. aeruginosa CDC-0110
  MIC: < 1 µg/mL

## O=C(O)c1c(F)ccc2c1OB(O)[C@@H](NC(=O)[C@H](NC(=O)N1CCN(Cc3ccc(O)c(O)c3Cl)C(=O)C1=O)c1cccc(P(=O)(O)O)c1)C2 (single isomer, unassigned) [Example 163]
P. aeruginosa CDC-0095
  MIC: < 1 µg/mL
A. baumannii CDC-0045
  MIC: < 1 µg/mL
[1]
  IC50: < 10 µM
A. baumannii ATCC 19606
  MIC: < 1 µg/mL
P. aeruginosa ATCC 27853
  MIC: < 1 µg/mL
A. baumannii PBP2
  EC50: 10 to 50 µM
[2]
  MIC: < 1 µg/mL
P. aeruginosa CDC-0110
  MIC: < 1 µg/mL

## O=C(NCCS(=O)(=O)N1CCN(C(=O)N[C@@H](C(=O)N[C@H]2Cc3ccc(F)c(C(=O)O)c3OB2O)c2ccc(P(=O)(O)O)cc2)C1=O)c1ccc(O)c(O)c1Cl (single isomer, unassigned) [Example 168]
P. aeruginosa CDC-0095
  MIC: 8 to 16 µg/mL (≈ 9.66 to 19.3 µM)
A. baumannii CDC-0045
  MIC: 2 to 4 µg/mL (≈ 2.42 to 4.83 µM)
[1]
  IC50: < 10 µM
A. baumannii ATCC 19606
  MIC: < 1 µg/mL
P. aeruginosa ATCC 27853
  MIC: 8 to 16 µg/mL (≈ 9.66 to 19.3 µM)
A. baumannii PBP2
  EC50: < 10 µM
[2]
  MIC: < 1 µg/mL
P. aeruginosa CDC-0110
  MIC: 32 to 64 µg/mL (≈ 38.7 to 77.3 µM)

## O=C(NCCCS(=O)(=O)N1CCN(C(=O)N[C@H](C(=O)N[C@H]2Cc3ccc(F)c(C(=O)O)c3OB2O)c2ccc(P(=O)(O)O)cc2)C1=O)c1ccc(O)c(O)c1Cl (single isomer, unassigned) [Example 169]
P. aeruginosa CDC-0095
  MIC: > 128 µg/mL
A. baumannii CDC-0045
  MIC: > 128 µg/mL
[1]
  IC50: 10 to 50 µM
A. baumannii ATCC 19606
  MIC: > 128 µg/mL
P. aeruginosa ATCC 27853
  MIC: > 128 µg/mL
A. baumannii PBP2
  EC50: 50 to 250 µM
[2]
  MIC: > 128 µg/mL
P. aeruginosa CDC-0110
  MIC: > 128 µg/mL

## O=C(O)c1c(F)ccc2c1OB(O)[C@@H](NC(=O)[C@H](NC(=O)N1CCN(C3CCN(C(=O)Nc4ccc(O)cc4)CC3)C(=O)C1=O)c1cc(F)c(O)c(O)c1Cl)C2 (single isomer, unassigned) [Example 426]
P. aeruginosa CDC-0095
  MIC: 2 to 4 µg/mL (≈ 2.5 to 4.99 µM)
A. baumannii CDC-0045
  MIC: 2 to 4 µg/mL (≈ 2.5 to 4.99 µM)
[1]
  IC50: < 10 µM
A. baumannii ATCC 19606
  MIC: < 1 µg/mL
P. aeruginosa ATCC 27853
  MIC: 2 to 4 µg/mL (≈ 2.5 to 4.99 µM)
A. baumannii PBP2
  EC50: 10 to 50 µM
[2]
  MIC: < 1 µg/mL
P. aeruginosa CDC-0110
  MIC: < 1 µg/mL

## O=C(O)c1c(F)ccc2c1OB(O)[C@@H](NC(=O)[C@H](NC(=O)N1CCN(C3CCN(C(=O)c4cccc(O)c4)CC3)C1=O)c1cc(F)c(O)c(O)c1Cl)C2 (single isomer, unassigned) [Example 430]
P. aeruginosa CDC-0095
  MIC: < 1 µg/mL
A. baumannii CDC-0045
  MIC: 8 to 16 µg/mL (≈ 10.6 to 21.1 µM)
[1]
  IC50: < 10 µM
A. baumannii ATCC 19606
  MIC: < 1 µg/mL
P. aeruginosa ATCC 27853
  MIC: < 1 µg/mL
A. baumannii PBP2
  EC50: < 10 µM
[2]
  MIC: < 1 µg/mL
P. aeruginosa CDC-0110
  MIC: < 1 µg/mL
